Measured values reported in patent publication US20210301318A1, “A BIOMARKER AND TARGET FOR DIAGNOSIS, PROGNOSIS AND TREATMENT OF ANKYLOSING SPONDYLITIS” (priority 2018, published 2021).
Entries after “also recorded” stand apart in the source; their conditions may differ.

How the values were obtained:
TNAP = target: T1, TNAP (Homo sapiens, UniProt P05186); conditions: from references 22-24; cited from earlier work
T1 sequence (P05186 18-501 limits assumed): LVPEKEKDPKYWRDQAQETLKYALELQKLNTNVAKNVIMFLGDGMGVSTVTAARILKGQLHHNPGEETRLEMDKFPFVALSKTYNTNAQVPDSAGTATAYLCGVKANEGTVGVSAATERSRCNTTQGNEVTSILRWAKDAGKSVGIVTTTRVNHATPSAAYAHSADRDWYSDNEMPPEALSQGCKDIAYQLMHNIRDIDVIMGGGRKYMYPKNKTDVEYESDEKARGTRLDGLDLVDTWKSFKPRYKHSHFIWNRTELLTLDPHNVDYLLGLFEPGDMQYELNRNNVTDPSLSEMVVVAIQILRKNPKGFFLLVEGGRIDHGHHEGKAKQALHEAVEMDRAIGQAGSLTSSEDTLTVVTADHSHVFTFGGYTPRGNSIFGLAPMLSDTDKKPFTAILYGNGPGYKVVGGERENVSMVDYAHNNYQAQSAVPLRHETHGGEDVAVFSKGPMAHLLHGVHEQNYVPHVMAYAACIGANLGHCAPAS

AS patients = conditions: cited from earlier work
[1] = test system: NOD-SCID mice implanted with AS MSCs; assay: New bony apposition in NOD-SCID mice implanted with AS MSCs (micro-computed tomography of lumbar spine); assay type: in vivo; conditions: daily oral administration: levamisole 10 mg/kg, beryllium sulfate 7.5 mg/kg, pamidronate 0.3 mg/kg; micro-CT 3 weeks after implantation
Protocol: The animal experimental protocol was approved by the Animal Care and Utilization Committee of Taipei Tzu Chi General Hospital. NOD-SCID mice (8-10 weeks) were purchased from BioLASCO (Taipei, Taiwan) and maintained in a specific pathogen-free environment. Human MSCs were treated with β-glycerophosphate in culture for 5 days, embedded in fibrin (10^6 cells in 5 μl fibrin) (Baxter, Vienna, Austria) and implanted in areas adjacent to right lamina of lumbar spine segments L4 to L5 in NOD-SCID mice. The lamina of lumbar spine was decorticated using the forceps. Mice were fed with a 0.9% phosphate diet (Dyets, Bethlehem, Pa., USA) after surgery. Micro-computed tomography (SkyScan 1076; Kontich, Belgium) over lumbar spines was undertaken 3 weeks after implantation. Bone mineral density over the femur measured by micro-computed tomography in NOD-SCID mice following implantation with AS MSCs and daily oral administration of H2O levamisole (10 mg/kg), beryllium sulfate tetrahydrate (7.5 mg/kg), or pamidronate (0.3 mg/kg) for 12 weeks. Quantitative volumes of new bony apposition were acquired by Bruker CT-Volume version 2.0 software.

AS MSCs = assay: Mineralization of AS MSCs under osteogenic induction (Alizarin red S staining); assay type: cell-based, human; conditions: 100 μM levamisole, 100 μM beryllium sulfate, or 1 μg/ml pamidronate
Protocol: The same passages (p3 to p5) of AS MSCs and N MSCs were compared.
The first culture condition was osteogenic induction, whereby α-MEM was supplemented with 10% fetal bovine serum (Gibco), 50 μg/mL ascorbate-2 phosphate (Sigma-Aldrich, St. Louis, Mo., USA), 10 nmol/L dexamethasone (Sigma-Aldrich), and 10 mmol/L β-glycerophosphate (Sigma-Aldrich). […] The medium was changed every 3 days. After appearance of the morphologic features of differentiation, cells were fixed with 4% paraformaldehyde. Cells treated by osteogenic culture were stained for Alizarin red S (Sigma-Aldrich) for mineralization. Quantification of Alizarin red S staining was conducted by measurement of the optical density (OD) of extracted dye at 550 nm with a plate reader (Molecular Devices, Sunnyvale, Calif., USA).
After morphological differentiation, cells were subjected to Alizarin red S staining.

Structure (SMILES) | type of TNAP inhibition (TNAP) | inflammation of AS patients (AS patients; some studies, references 26-29) | new bony apposition induced by AS MSCs [1] | accelerated mineralization in AS MSCs (ARS staining) (AS MSCs) | serum BAP levels (AS patients; one study, reference 34)
c1ccc([C@H]2CN3CCSC3=N2)cc1 [levamisole, (6S)-6-phenyl-2H,3H,5H,6H-imidazo[2,1-b][1,3]thiazole] | uncompetitive | marginally reduce inflammation | blocked | blocked effectively; also recorded: inhibit this abnormal mineralization | 
NCCC(O)(P(=O)(O)O)P(=O)(O)O [pamidronate] | uncompetitive |  | blocked | blocked effectively; also recorded: inhibit this abnormal mineralization | lowering serum BAP levels
O.O.O.O.O=S(=O)([O-])[O-].[Be+2] [beryllium sulfate, BeSO4•4H2O] | competitive |  |  | blocked effectively | 
